Data as given in patent US12220437B2, “Oncolytic virus improved in safety and anticancer effect” (BIONOXX INC., priority 2017, dated 2025).

How the values were obtained:
[1] = test system: A549 cells; assay: Annexin V/PI staining, flow cytometry (FACS); type: cell-based, human
Protocol: (§1) In addition, the apoptosis and necrosis according to the combined administration of OTS-412 and GCV were confirmed by flow cytometry (FACS). Specifically, A549 and NCI-H460 cell lines were treated with GCV alone, OTS-412 alone, or a combination of OTS-412 and GCV, respectively, and the cells were subjected to Annexin V/PI staining followed by flow cytometry. At this time, the viability of cell was determined based on the facts that: both Annexin V and PI are negative in living cells; Annexin V is positive in the early stage of apoptosis, wherein the permeability of cell membrane changes; and both Annexin V and PI are positive at the end of apoptosis, wherein the nucleus is exposed by destruction of the cell membrane.

[2] = test system: NCI-H460 cells; assay: Annexin V/PI staining, flow cytometry (FACS); type: cell-based, human
Protocol: as §1

## Nc1nc2c(ncn2COC(CO)CO)c(=O)[nH]1 [GCV, ganciclovir]
[1]
  apoptosis rate: not confirmed
[2]
  apoptosis rate: not confirmed
